Test results from PMC11501026, “L-Arginine and asymmetric dimethylarginine (ADMA) transport across the mouse blood-brain and blood-CSF barriers: Evidence of saturable transport at both interfaces and CNS to blood efflux” (PLOS ONE, 2024).
Where “and” joins values, the source holds several entries; their conditions need not be identical. Equal values may be shown once. Where a name gives a salt, the structure may show the parent alone. Read-outs that look alike come from different tables or passages of the source.

How the values were obtained:
[1] = tested on: [3H]-ADMA transport across the blood-brain and blood-CSF barriers; assay: cross-inhibition, in situ perfusion: [^3H]-ADMA with 100 μM unlabelled L-arginine; type: in vivo, mouse; design: uptake into choroid plexus / uptake into frontal cortex / uptake into caudate nucleus / uptake into occipital cortex / uptake into hippocampus / uptake into hypothalamus / uptake into thalamus / uptake into cerebellum: unit not given here; conditions: male, Balb/c, mouse, other: in situ brain perfusion, 10 mins, Balb/c ♂, 5ml/min
Protocol: (§1) Self-inhibition experiments were also performed. […] Cross-competition experiments were also performed.
(§2) The percentage change in the RTissue uptake values achieved in the absence or presence of an unlabelled inhibitor can be calculated by means of Eq 4.
(§3) %change=RTissue−RInhibition/RTissue×100 Eq 4
(§4) We define RInhibition as the RTissue uptake in the presence of an inhibitor in the artificial plasma.
(§5) A decrease in the uptake of radiolabelled solute in the presence of unlabelled inhibitor is indicative of a saturable influx transport system. Conversely, an increase in the uptake of radiolabelled solute in the presence of unlabelled inhibitor is indicative of a saturable efflux transport system.

[2] = tested on: [^3H]-ADMA transport across the blood-brain and blood-CSF barriers; assay: as above; type: in vivo, mouse; design: uptake into choroid plexus / uptake into frontal cortex / uptake into caudate nucleus / uptake into occipital cortex / uptake into hippocampus / uptake into hypothalamus / uptake into thalamus / uptake into cerebellum: unit not given here; conditions: [3H] ADMA + [14C] Sucrose + 100uM Arg, 10 mins, Balb/c ♂, 5ml/min; individual mice
Protocol: as §1, §2, §3, §4, §5

[3] = in situ brain/choroid plexus perfusion: CNS uptake of [^3H]-arginine, [^3H]-ADMA and [^14C]-sucrose (multiple-time and single-time uptake analysis); conditions: Balb/c ♂, 5ml/min
Protocol: All animals used in procedures were adult male BALB/c mice (between 23 g and 25 g) sourced from Harlan Laboratories, Oxon, UK, unless otherwise stated.
Animals were weighed immediately before the administration of the anaesthetic to ensure correct dosage. Domitor® (medetomidine hydrochloride) and Vetalar® (ketamine) were both purchased from Harlan Laboratories (Cambridge, UK). All animals were terminally anaesthetised (2 mg/kg Domitor® and 150 mg/kg Vetalar® injected intraperitoneally), and a lack of self-righting and paw-withdrawal reflexes (as surrogate indicators of consciousness) thoroughly checked prior to and during all procedures. If needed, additional anaesthetic was administered via the same route. […] At the end of the in situ brain perfusion procedure the animal was killed by decapitated under non-recovery anaesthesia. Animals were heparinised with 100 units heparin (in 0.9% m/v NaCl(aq), Harlan Laboratories; Oxon, UK), administered via the intraperitoneal route prior to surgery.
The in situ brain/choroid plexus perfusion method is designed to directly perfuse the brain with artificial plasma via a cannula placed in the heart. Artificial plasma is prepared to mimic the ionic composition of blood, and transporter inhibitors can be added in known concentrations and delivered to the brain for defined periods of time.
The left ventricle of the heart was cannulated with a 25G x 10 mm butterfly-winged needle connected to the perfusion circuit. […] The right atrium of the heart was sectioned to allow outflow of the artificial plasma. […] Radiolabelled and unlabelled test molecules were infused into the inflowing artificial plasma for periods up to 30 minutes.
At the set perfusion time a CSF sample was taken by inserting a pulled glass micropipette connected to silicon tubing and a syringe into the cisterna magna. Gentle suction was applied, and CSF was withdrawn. Only clear CSF samples were processed and taken for analysis. Samples contaminated with blood were discarded. The animal was then decapitated and the brain removed. Specific brain samples including the circumventricular organs (CVOs) were taken using a Leica S4E L2 stereomicroscope (Leica; Buckinghamshire, UK). The brain samples included the frontal cortex, caudate nucleus, occipital cortex, hippocampus, hypothalamus, thalamus, pons and cerebellum. The CVOs included the choroid plexus, pituitary gland and pineal gland.
All samples (brain regions, capillary depletion brain homogenate, pellet and supernatant, CVOs, CSF and plasma samples) were solubilised in 0.5 mL tissue solubiliser (Solvable; Perkin-Elmer; Boston, MA, USA). After incubating the samples at room temperature for 48 h, 4 mL scintillation fluid (Lumasafe®; Perkin-Elmer; Boston, MA, USA) was added to each before vigorous vortexing.

- Kp at 10 min, 62.5 nM ([1]; hypothalamus, with 100 µM unlabelled L-arginine, Difference (ADMA minus Sucrose), hypothalamus, + 100uM Arg, individual mice): 0.0699
- Kp at 10 min, 62.5 nM ([1]; hypothalamus, with 100 µM unlabelled L-arginine, Difference (ADMA minus Sucrose), hypothalamus, + 100uM Arg, mean): 0.0777
- Kp at 10 min, 62.5 nM ([1]; hypothalamus, with 100 µM unlabelled L-arginine, [3H] ADMA + [14C] Sucrose + 100uM Arg, individual mice, read-out: uptake into hypothalamus): 0.105
- Kp at 10 min, 62.5 nM ([1]; hypothalamus, with 100 µM unlabelled L-arginine, [3H] ADMA + [14C] Sucrose + 100uM Arg, mean, read-out: uptake into hypothalamus): 0.11
- Kp at 10 min, 62.5 nM ([1]; occipital cortex, with 100 µM unlabelled L-arginine, Difference (ADMA minus Sucrose), occipital cortex, + 100uM Arg, mean): 0.048
- Kp at 10 min, 62.5 nM ([1]; occipital cortex, with 100 µM unlabelled L-arginine, [3H] ADMA + [14C] Sucrose + 100uM Arg, mean, read-out: uptake into occipital cortex): 0.0669
- Kp at 10 min, 62.5 nM ([1]; pineal gland, with unlabelled L-arginine 100 µM, Difference (ADMA minus Sucrose), pineal gland, + 100uM Arg, mean): 0.613
- Kp at 10 min, 62.5 nM ([1]; pineal gland, with unlabelled L-arginine 100 µM, [3H] ADMA + [14C] Sucrose + 100uM Arg, mean, read-out: uptake into pineal gland): 0.915
- Kp at 10 min, 62.5 nM ([1]; pituitary gland, with 100 µM unlabelled L-arginine, Difference (ADMA minus Sucrose), pituitary gland, + 100uM Arg, mean): 0.487
- Kp at 10 min, 62.5 nM ([1]; pituitary gland, with 100 µM unlabelled L-arginine, [3H] ADMA + [14C] Sucrose + 100uM Arg, mean, read-out: uptake into pituitary gland): 0.6
- Kp at 10 min, 62.5 nM ([1]; pons, with 100 µM unlabelled L-arginine, Difference (ADMA minus Sucrose), pons, + 100uM Arg, mean): 0.0483
- Kp at 10 min, 62.5 nM ([1]; pons, with 100 µM unlabelled L-arginine, [3H] ADMA + [14C] Sucrose + 100uM Arg, mean, read-out: uptake into pons): 0.0946
- Kp at 10 min, 62.5 nM ([1]; thalamus, with 100 µM unlabelled L-arginine, Difference (ADMA minus Sucrose), thalamus, + 100uM Arg, mean): 0.0566
- Kp at 10 min, 62.5 nM ([1]; thalamus, with 100 µM unlabelled L-arginine, [3H] ADMA + [14C] Sucrose + 100uM Arg, mean, read-out: uptake into thalamus): 0.0793
- uptake into choroid plexus [2]: 0.5896 and 0.666 and 0.4457 and 0.7681
- [3H] ADMA and [14C] Sucrose uptake, choroid plexus ([3]; 2.5 mins, individual mouse): 1.245 and 0.8202 and 0.645 and 0.9198
- [3H] ADMA and [14C] Sucrose uptake, frontal cortex ([3]; 2.5 mins, individual mouse, in mL/100 g): 0.1518 and 0.0919
- Difference (ADMA minus Sucrose), caudate nucleus ([3]; 30 mins, mean): 0.1018
- Difference (ADMA minus Sucrose), choroid plexus ([3]; 30 mins, mean): 0.4075
- Difference (ADMA minus Sucrose), frontal cortex ([3]; 30 mins, mean): 0.1041
- Difference (ADMA minus Sucrose), caudate nucleus ([3]; CONTROL, 10 mins, mean): 0.2407
- Difference (ADMA minus Sucrose), cerebellum ([3]; CONTROL, 10 mins, mean): 0.1615
- Difference (ADMA minus Sucrose), choroid plexus ([3]; CONTROL, 10 mins, mean): 2.6086
- Difference (ADMA minus Sucrose), frontal cortex ([3]; CONTROL, 10 mins, mean): 0.2494
- Difference (ADMA minus Sucrose), hippocampus ([3]; CONTROL, 10 mins, mean): 0.2174
- Difference (ADMA minus Sucrose), hypothalamus ([3]; CONTROL, 10 mins, mean): 0.3042
- Difference (ADMA minus Sucrose), occipital cortex ([3]; CONTROL, 10 mins, mean): 0.2252
- Difference (ADMA minus Sucrose), pituitary gland ([3]; CONTROL, 10 mins, mean): 1.829
- Difference (ADMA minus Sucrose), pons ([3]; CONTROL, 10 mins, mean): 0.2464
Structure (SMILES): CN(C)C(N)=NCCC[C@H](N)C(=O)O [ADMA, N^G,N^G-dimethylarginine dihydrochloride]
- uptake into caudate nucleus [2]: 0.06709 and 0.08883 and 0.04583 and 0.07378
- uptake into cerebellum [2]: 0.04812 and 0.06526 and 0.1041 and 0.02606 and 0.09306
- uptake into frontal cortex [2]: 0.07007 and 0.07553 and 0.1227 and 0.05236 and 0.1082
- uptake into hippocampus [2]: 0.04437 and 0.05436 and 0.09956 and 0.03726 and 0.0687
- uptake into hypothalamus [2]: 0.1376 and 0.1261 and 0.09757 and 0.08557
- uptake into occipital cortex [2]: 0.04352 and 0.05773 and 0.1002 and 0.05331 and 0.07955
- uptake into pituitary gland [2]: 0.3174 and 0.8724 and 1.123 and 0.09502 and 0.5936
- uptake into pons [2]: 0.0747 and 0.145 and 0.1344 and 0.05028 and 0.06842
- uptake into thalamus [2]: 0.04368 and 0.06682 and 0.145 and 0.05879 and 0.08201
- Difference (ADMA minus Sucrose), choroid plexus ([3]; 2.5 mins, individual mouse): 0.4619 (2×) and 1.038 and 0.6787 and 0.7164
- Difference (ADMA minus Sucrose), pineal gland ([3]; 2.5 mins, individual mouse): 0.0119 (2×) and 0.6055 and 0.1704 and 0.3775
- Difference (ADMA minus Sucrose), caudate nucleus ([3]; 30 mins, individual mice): 0.07868 and 0.2155 and 0.07884 and 0.04051 and 0.09553
- Difference (ADMA minus Sucrose), choroid plexus ([3]; 30 mins, individual mice): 0.4322 and 0.7701 and 0.2962 and 0.1895 and 0.3495
- Difference (ADMA minus Sucrose), frontal cortex ([3]; 30 mins, individual mice): 0.08507 and 0.2094 and 0.08399 and 0.04504 and 0.09711
- Difference (ADMA minus Sucrose), occipital cortex ([3]; 30 mins, individual mice): 0.09101 and 0.202 and 0.09058 and 0.04293 and 0.1128
- Difference (ADMA minus Sucrose), pineal gland ([3]; 30 mins, individual mice): 0.4361 and 1.061 and 0.1804 and 0.1286 and 0.2721
